Measurements as given in paper PMC4481117 (Molecular Pain, 2015).

How the values were obtained:
U937 monocytic cells = assay: Chemotaxis migration assay of U937 cells to Dyn A agarose gel; format: cell-based, human; conditions: 10 μM Dyn A in agarose
Protocol: Fig. 7 Chemotactic response of U937 cells to Dyn A. a, schematic representation of the experimental format. U937 cells (5x10^4) were placed in the center of the coverslip between two agar gels, one containing Dyn A and control gel without Dyn A. After 2 h at 37 °C, a series of photographs was taken in the direction of migration at 1-mm intervals to count the number of migrating cells. b , representative images after 2 h of migration show the cells within the starting point (marked with a cross; right panels) and at the border of the Dyn A-containing agar drop (left panels). […] Two bottom panels show the experimental condition with no Dyn A gradient. c, quantification of U937 cells migrated from the initial point after 2 h based on the results shown in A (right panel). Migration of control untreated U937 cells that completely migrated from the initial point of cell placement was assigned a value of 100 %. In contrast, there was no cell migration without a Dyn A gradient (0 %). […] A representative experiment is shown. d, distribution of U937 cells between two gels: Dyn A-containing (on the left) and without Dyn A (on the right). “0” on abscissa corresponds to the initial point where cells were loaded and the numbers show the distance that cells migrated in both directions from the starting point. All cells in each of 10 consecutive fields towards the Dyn A-containing and empty gels were counted and plotted as a distance from the starting point
Chemotaxis assays using U937 monocytic cells were performed on 22 × 22 mm cover slips. 1 % agarose (Life Technologies, Carlsbad, CA) was dissolved in HBSS by heating. After cooling, the agarose solution was mixed with Dyn A to obtain a final concentration of 10 μM. A 10 μl drop of warm agarose solution containing Dyn A was placed at one corner of the cover glass at ~1.5 mm from the edge. A control agarose drop was placed diagonally at the opposite corner of the cover glass. Agarose was allowed to solidify for 5 min, and the cover glasses were placed into wells of the 6-well plate filled with 5 ml of RPMI 1640 + 10 % FBS. A 10-μl aliquot of U937 cells (5x10^4) was loaded in the center of the cover glass and the plate was incubated for 2 h at 37 °C in a humidified atmosphere containing 5 % CO2. In this experimental format, the cells sediment approximately 5 min after loading, forming an ~4 mm circle, and begin to migrate towards the Dyn A-containing agarose drop. […] The photographs were taken at 1-mm intervals in the direction of cell migration towards the dynorphin-containing or control agarose drops without dynorphin A. The number of cells at the starting point and in each of 10 consecutive fields towards the dynorphin-containing and empty gels were counted and plotted as a distance from the starting point.

IC-21 macrophages = assay: Phagocytosis of Dyn A-coated latex beads by IC-21 macrophages; format: cell-based, murine; conditions: 1 μm beads preincubated with 50 μg/ml Dyn A, 30 min at 37 °C; vs control beads
Protocol: Fig. 8 Effect of Dyn A on phagocytosis of latex beads. a, Fluorescent latex beads (1x10^9/ml) were preincubated with Dyn A (50 μg/ml) for 40 min at 37 °C. Soluble peptide was removed from the beads by high-speed centrifugation. Peptide-coated beads were incubated with adherent IC-21 macrophages for 30 min at 37 °C. Nonphagocytosed beads were removed from cells by washing with PBS. […] Rat IgG2b was used as an isotype control for anti-αM mAb M1/70. Phagocytosis was quantified for five random fields per well using a 20x objective. Phagocytosis of Dyn A-treated beads was assigned as 100 %.
A suspension of fluorescent […] latex beads (1x10^9/ml) (FluoSpheres sulfate microspheres, Life Technologies, Carlsbad, CA) was incubated with 50 μg/ml of Dyn A for 40 min at 37 °C, then unbound peptide was removed by centrifugation. IC-21 murine macrophages (5 × 10^5/ml) were adhered on the cover glass for 30 min and 3 × 10^6 of peptide-coated beads were added to adherent IC-21 cells. After incubating for 30 minutes at 37 °C, nonphagocytosed beads were separated from macrophages by washing with 3x1 ml PBS and phagocytosed beads were counted in the presence of trypan blue. […] The ratio of beads per macrophage was quantified by taking photographs of five fields for each well using a Leica DM4000 B microscope (Leica Microsystems, Buffalo Grove, IL) with a 20 × objective.

k-opioid receptors = tested on: k-opioid receptors; parameters: method as in PMID 10973443, PMID 16364815, PMID 22424981; conditions: cited from earlier work

In the case of `CC[C@H](C)[C@H](NC(=O)[C@H](CCCNC(=N)N)NC(=O)[C@H](CCCNC(=N)N)NC(=O)[C@H](CC(C)C)NC(=O)[C@H](Cc1ccccc1)NC(=O)CNC(=O)CNC(=O)[C@@H](N)Cc1ccc(O)cc1)C(=O)N[C@@H](CCCNC(=N)N)C(=O)N1CCC[C@H]1C(=O)N[C@@H](CCCCN)C(=O)N[C@@H](CC(C)C)C(=O)N[C@@H](CCCCN)C(=O)N[C@@H](Cc1c[nH]c2ccccc12)C(=O)N[C@@H](CC(=O)O)C(=O)N[C@@H](CC(N)=O)C(=O)N[C@@H](CCC(N)=O)C(=O)O` [Dyn A], the “Distance travelled by majority of untreated cells towards Dyn A” value (U937 monocytic cells; 2 h, no inhibitor) is reported as ~ 8 mm, the “Chemotaxis of U937 cells (in words)” value (U937 monocytic cells; 2 h at 37 °C) is reported as “efficiently migrated along the gradient of Dyn A” and the “Augmentation of bead uptake” value (IC-21 macrophages) is reported as ~ 10 -fold. For the same molecule, the κ-opioid receptor binding (k-opioid receptors) was “binds preferentially to the k-opioid receptors”.
